Assay results published in PMC8904520, “Characterization of a small-molecule inhibitor targeting NEMO/IKKβ to suppress colorectal cancer growth” (Signal Transduction and Targeted Therapy, 2022).

Experiments:
[1] = test system: colorectal cancer cells (LoVo, RKO, SW620, HCT15, HCT116); test: CCK-8 cell viability assay, colorectal cancer cells; type: cell-based, human; conditions: LoVo, RKO, SW620, HCT15, HCT116; 48 h
Description: Cell viability was determined using the CCK-8 assay. Briefly, 5×10³ cells were seeded into 96-well culture plates, allowed to adhere for overnight, and then changed to fresh medium containing various concentrations of SHK (0, 0.5, 1, 2 and 5 µM) dissolved in DMSO (final concentration, 0.1%). After incubation for 48 h, the CCK-8 reagent was added, and the absorbance was measured at 450 nm using an EnSpire® Multimode Plate Reader (Perkin Elmer, USA). The cell viability in the vehicle control groups was defined as 100%. Each assay was carried out in triplicate.

NEMO/IKKβ complex = biological target: T1, NEMO/IKKβ complex (Homo sapiens, UniProt O14920+Q9Y6K9); test: Co-immunoprecipitation of NEMO/IKKβ; conditions: pre-formed complex, Co-IP
T1 construct: expressed in transfected cells; host or cells: HEK293T
Description: The pre-cleared cell lysates were incubated with an anti-HA antibody on a rotating platform at 4 °C for 2 h, and then incubated for another 6 h with protein A/G-sepharose beads. The sepharose beads were washed three times with binding buffer, mixed with gel loading buffer and boiled for 5 min. The samples were centrifuged and the supernatants were used for western blot analysis. A specific antibody against the Flag-tag was applied for the detection of proteins.
The IKKβ and NEMO expression vectors were constructed by subcloning the full-length cDNA to pENTER-4T1 expression vector (Flag- or HA-tagged) developed by ViGene Biosciences, as described previously.[25] The 293T cells (1 × 10^6) were plated into 60 mm dishes for 1 day, and then transfected with the relevant plasmids encoding HA-IKKβ and Flag-NEMO using Lipofectamine 2000 transfection reagent (Invitrogen). After transfection, the cells were cultured for another 24 h. Subsequently, the transfected cells were trypsinized and seeded into 60 mm dishes, followed by culturing with fresh medium containing the indicated doses of SHK for 48 h, and then collected for the Co-IP assay.

T1 sequence (Q9Y6K9 1-196): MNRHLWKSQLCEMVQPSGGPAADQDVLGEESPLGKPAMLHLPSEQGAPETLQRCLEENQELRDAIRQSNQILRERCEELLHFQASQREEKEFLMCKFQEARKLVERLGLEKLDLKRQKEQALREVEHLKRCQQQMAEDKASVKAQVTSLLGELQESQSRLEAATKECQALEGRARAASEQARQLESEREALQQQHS
T1 sequence (O14920 701-745): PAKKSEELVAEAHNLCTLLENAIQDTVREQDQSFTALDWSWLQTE

CC(=O)O[C@H](CC=C(C)C)C1=CC(=O)c2c(O)ccc(O)c2C1=O [ASHK, acetyl shikonin]
growth inhibition of cancer cell lines [1]: only slight growth inhibition
ability to destabilize the NEMO/IKKβ complex (NEMO/IKKβ complex): lost the ability to destabilize the NEMO/IKKβ complex

CC(C)=CCCC1=CC(=O)c2c(O)ccc(O)c2C1=O [DSHK, deoxyshikonin]
growth inhibition of cancer cell lines [1]: only slight growth inhibition
ability to destabilize the NEMO/IKKβ complex (NEMO/IKKβ complex): lost the ability to destabilize the NEMO/IKKβ complex

COC(CC=C(C)C)C1=CC(=O)c2c(O)ccc(O)c2C1=O (stereo not drawn) [MSHK, methylshikonin]
growth inhibition of cancer cell lines [1]: only slight growth inhibition
ability to destabilize the NEMO/IKKβ complex (NEMO/IKKβ complex): lost the ability to destabilize the NEMO/IKKβ complex
